Data as given in patent US9517269B1, “Stable pentobarbital formulation” (Akorn, Inc., priority 2013, dated 2016).

Assays:
[1] = background statement; cited from earlier work
[2] = Formulation Development Study #5 (44% propylene glycol): physical observations; type: physicochemical; details: with 44% propylene glycol at pH-9.0
Protocol: In order to determine at what pH precipitate forms at room temperature, three lab batches were made with 44% propylene glycol and target pH at 9.1, 9.0 and 8.9. […] Lab batch samples were placed on stability at room temperature, 40° C., and 50° C. for three months. Only physical observations were performed during the stability study.

[3] = Formulation Development Study #4 (target pH 9.0): physical observations; type: physicochemical; details: pH ˜9.0 and propylene glycol concentration less than 50%
Protocol: Four lab batches similar to Formulation Development Study #3 were made. The purpose of these batches was to find out if impurity at RRT 0.7 can be reduced by making lab batches with different concentrations of propylene glycol and alcohol at the target pH of 9.0. […] These four lab batches were placed on stability at room temperature, 40° C., and 50° C.

[4] = Formulation Development Study #2 (target pH 8.70): physical observations; type: physicochemical; details: below pH 8.7
Protocol: Based on Formulation Development Study #1, four more lab batches were made with different concentrations of propylene glycol and ethyl alcohol at target pH 8.70. The purpose of the study was to determine the influence of low pH and different concentrations of propylene glycol and ethyl alcohol on the product quality. Physical observations were recorded during compounding. Lab batch samples were placed on stability at room temperature, 40° C. and 50° C. Only physical observations were performed and recorded during stability. The stability study lasted one month.

SMILES: CCCC(C)C1(CC)C(=O)NC(=O)NC1=O (stereo not shown) [pentobarbital, 5-Ethyl-5-(1-methylbutyl)-2,4,6(1H,3H,5H)-pyrimidinetrione]
- pH at which pentobarbital precipitates [1]: less than 9.0
- Stability of pentobarbital in solution (precipitation) [2]: not stable
- Stability of pentobarbital in solution (precipitation) [3]: not stable
- Stability of pentobarbital in solution (precipitation) [4]: not stable
